Measured values from patent US10660910B2, “Use of sedoheptulose for prevention or treatment of inflammation” (C7 SUGAR GMBH, priority 2013, dated 2020).

What was measured:
[1] = Glucose and sedoheptulose measurement in human serum before and after carrot meal (GC-MS); format: in vivo; conditions: humans, two hours after a meal of mainly steamed carrots (~700 g per male adult) vs overnight fasted, n=4, FIG. 1B
Excerpt: Fresh carrots with an Austrian “organic-certificate” were sliced into small pieces and snap-frozen in liquid nitrogen. The same procedure was applied to leaves freshly harvested from indoor-grown Sedum Spectabile plants. Three samples of each tissue were pooled and homogenized to powder by glass-beads. The carbohydrate rich fractions of the samples were isolated by 20% H2O and 80% MeOH extraction solution spiked with 13 C standards and processed for standard gas-chromatography coupled to mass spectrometry (GC-MS). Glucose and sedoheptulose were identified by their individual masses and their relative amount was derived from the peak area of each individual analyte normalized to 13 C content. Glucose and sedoheptulose were also measured in equal volumes of serum from overnight fasted or carrot fed individuals. The carrots were steamed and some olive-oil, salt and pepper were used for flavour. Two hours before and two hours after the carrot containing meal human serum was prepared in VACUETTE® Z Serum Sep tubes from blood. Serum samples were processed as previously described and also analyzed by GC-MS as detailed above and in Ruiz-Matute AI et al., Chromatogr B Analyt Technol Biomed Life Sci. (2011) May 15 879(17-18).

[2] = test system: primary bone marrow derived macrophages; experiment: Bone marrow derived macrophages, basal cytokine mRNA (RT-PCR) and secretion (ELISA); format: cell-based, mouse
Method: (§1) FIG. 3: (A-E) Primary human adipocytes were obtained by differentiation of the stromal vascular cell fraction in the presence of glucose and fructose (GF, 1.5 g/L of each sugar; total carbohydrates 3 g/L) or sedoheptulose supplemented media, which was termed GFS (1 g/L of each sugar; total carbohydrates 3 g/L), for eight days. Subsequently mRNA levels of (A) CARKL, (B) adiponectin and (C) uncoupling protein 1 (UCP-1) was assessed by RT-PCR and compared between the groups. (D) Cellular oxygen consumption rates (OCR) and (E) extracellular acidification rates (ECAR) of adipocytes were recorded in the presence of indicated carbohydrate-mix (mean+/−S.D., n=9-11). (F) Tumor necrosis factor alpha (TNFa) and (G) interleukin 6 (IL-6) mRNA expression levels of mature murine adipocytes cultivated for three days in cell culture media containing either GF or GFS carbohydrate mix, or (H) IL-6 expression in primary murine hepatocytes, as well as (I) TNFa and (J) IL-6 mRNA levels in primary bone marrow derived macrophages, both cell types were pre-cultured for two days in GF or GFS media, were compared between respective groups. Secretion of (K) TNFa and (L) IL-6 cytokines over the period of two days was measured by ELISA in the supernatant of bone marrow derived macrophages. LPS-induced (100 ng/ml) secretion of (M) TNFa 2 hrs after activation and (N) IL-6 6 hrs after activation in the respective media by macrophages was also measured by ELISA. Data represents mean+/−S.D., n=3)
Mouse bones were isolated from male wild-type and CARKL overexpressing mice and bone marrow wash flushed, washed and cleared from redblood cells by lysis, and subsequently differentiated in DMEM containing 25 mM glucose and 20 ng/ml M-CSF. After 4 days, cells for osteoclast differentiation were harvested and seeded in corning osteo assay plates with differentiation media (see below), and for primary bone marrow derived macrophages (BMDM) the medium was renewed and further supplemented with M-SCF for two days. Differentiated BMDM were then seeded in respective DMEM-media containing 10% FBS and indicated carbohydrate mixes at 3 g/L (glucose and fructose (GF), or glucose, fructose and sedoheptulose (GFS)) at least two days before experiments were performed.
(§2) Briefly, total RNA was extracted and reverse-transcribed using commercial kits (QIAGEN, Applied Biosystems). Quantitative real-time PCRs were performed on an AbiPRISM 7900HT real-time cycler using iTaq SYBR Green Supermix with ROX (BioRad) to measure CARKL, adiponectin, UCP-1, TNFa, IL-6, MCP-1, and beta-actin expression as previously described (Haschemi et al., Cell Metab. 15 (2012), 813-826). Expression of target gene was normalized to beta-actin expression. Relative expression of target gene was calculated by the delta-delta CT method.

WT hepatocytes = experiment: Glucose-induced ECAR in hepatocytes; format: cell-based, mouse; conditions: WT hepatocytes in GFS vs GF media, 1 hr carbohydrate starvation, then glucose 1 g/L, FIG. 4E
Method: (§3) Hepatocytes were isolated from male wild-type and CARKL overexpressing mice after the mice were sacrificed by hepatic in situ collagenase perfusion. After perfusion, the liver was quickly removed, minced, and filtered through a cell strainer (Fisher Scientific, Inc) into a 50 ml sterile tube. Hepatocytes in the resulting filtrate were purified from the nonparenchymal cells by centrifugation steps. The isolated hepatocytes were seeded into plates at a concentration of 0.25×10^6/ml in respective DMEM-media containing 10% FBS and indicated carbohydrate mixes at 3 g/L (glucose and fructose (GF), or glucose, fructose and sedoheptulose (GFS)) at least two days before experiments were performed.
The XF-Analyzer (Seahorse Bio.) was used to measure changes in cellular metabolism induced by different carbohydrates. Extracellular acidification rates (ECAR, mpH/min) and oxygen consumption rates (OCR, pmoles/min) were recorded in primary human adipocytes and primary murine hepatocytes according to the manufacture instructions. Briefly, cells were seeded in seahorse cell plates at a density of 10^4 cells per well for adipocytes and 0.5×10^5 cells per well for hepatocytes. […] Changes induced by the different carbohydrate sources were expressed as relative change in % to illustrate the effect of each carbon source.

mature murine adipocytes = experiment: Mature murine adipocytes ceiling culture, cytokine mRNA by RT-PCR; format: cell-based, mouse; conditions: three days in GFS vs GF media
Method: Anterior and posterior subcutaneous adipose tissue and epididymal white adipose tissue was isolated from transgenic CARKL-mice and wild-type littermate controls. Adipose tissue was digested as described above for the human sample. After centrifugation, the layer of floating mature adipocytes was removed and re-centrifuged at 100 rcf for 10 minutes. 150 μL, of packed adipocytes were cultured under a floating coverslip in six-well plates, in DMEM/F12, 15% calf serum (PAA). 24 hours after isolation, the wells were washed twice with PBS and the medium was exchanged to DMEM/F12 with a total carbohydrate load of 3 g/L, containing 1.5 g/L glucose and fructose, or 1 g/L each of glucose, fructose and sedoheptulose, respectively. Three days later, the cells were harvested for RNA isolation using TRIreagent (Sigma).
as §2

[3] = test system: primary murine hepatocytes; experiment: Primary murine hepatocyte culture, IL-6 mRNA by RT-PCR; format: cell-based, mouse; conditions: pre-cultured two days in GFS vs GF media, FIG. 3H
Method: as §3, §2

[4] = test system: LPS-induced activated primary macrophages; experiment: LPS-induced cytokine secretion by bone marrow derived macrophages (ELISA); format: cell-based, mouse; conditions: LPS 100 ng/ml, GFS vs GF media
Method: as §1, with “(F) Tumor necrosis factor alpha (TNFa) and (G) interleukin 6 (IL-6) mRNA expression levels of mature murine adipocytes cultivated for three days in cell culture media containing either GF or GFS carbohydrate mix, or (H) IL-6 expression in primary murine hepatocytes, as well as (I) TNFa and (J) IL-6 mRNA levels in primary bone marrow derived macrophages, both cell types were pre-cultured for two days in GF or GFS media, were compared between respective groups.” left out, “Data represents mean+/−S.D., n=3)” left out

increase in sedoheptulose serum levels [1]: approximately two-fold
SMILES: O=C(CO)[C@@H](O)[C@H](O)[C@H](O)[C@H](O)CO [sedoheptulose, Sedoheptulose]
basal TNFa mRNA expression ([2]; pre-cultured two days in GFS vs GF media, FIG. 3I): blocked
basal IL-6 mRNA expression ([2]; pre-cultured two days in GFS vs GF media, FIG. 3J): blocked
basal TNFa cytokine secretion ([2]; supernatant over two days, ELISA, GFS vs GF media, FIG. 3K): blocked
basal IL-6 cytokine secretion ([2]; supernatant over two days, ELISA, GFS vs GF media, FIG. 3L): blocked
glucose-induced ECAR (WT hepatocytes): reduced
TNFa mRNA (mature murine adipocytes; FIG. 3F): less
IL-6 mRNA (mature murine adipocytes; FIG. 3G): less
IL-6 expression [3]: less
reduction of LPS-induced TNFa secretion ([4]; 2 hrs after activation, FIG. 3M): approximately 40%
LPS-induced IL-6 secretion ([4]; 6 hrs after activation, FIG. 3N): comparable levels as GF treated macrophages
